Reference: patent US20220257491A1, “Prebiotic Oral Care Compositions and Methods” (Colgate-Palmolive Company, priority 2021, published 2022)
Marks after values point to notes of the source that are not given here.

How the values were obtained:
Type in all cases: cell-based
A. actinomycetemcomitans = assay: Multi-species biofilm composition: absolute abundance of A. actinomycetemcomitans; settings: mean±SD n=3
Experimental: (§1) Biofilms are grown vertically on Calcium Deficient Hydroxyapatite (CAD-HA) disks (Hitemco Medical, Old Bethpage, USA) using the Amsterdam Active Adhesion model. Biofilms are allowed to establish during 24 h (37° C., 170 rpm) under micro-aerophilic conditions (6% O2, 7% CO2, 7% H2, 80% N2). After this 24 h, disks are rinsed 3 times a day for 3 minutes (RT, 250 rpm), for 3 consecutive days, by transferring the lid containing the disks to a new 24-well plate containing 2 mL/well of the appropriate substrate solution. As a negative control, PBS (pH 5.7) without substrate supplementation is used. After each rinsing step, disks are shortly dip-rinsed in a new 24-well plate containing fresh modified BHI medium (2 mL/well) to remove remaining substrate traces. Subsequently, the lid is transferred to another 24-well plate containing fresh modified BHI medium (2 mL/well), followed by incubation (micro-aerophilic, 37° C., 170 rpm) until the next rinsing step.
(§2) NADM, N-acetyl-D-glucosamine (“NADG”) and D-(+)-mannose are selected to determine their effects on multi-species biofilm composition. […] decrease in absolute numbers in at least four of the pathogenic bacterial species tested in the assay, compared to the control, the results of which are described in Table 1 below. Absolute abundances of bacterial species are shown as mean±SD (n=3) logarithmic values of the genome equivalents per millilitre (log(Geq/mL)).

S. mutans = assay: Multi-species biofilm composition: absolute abundance of S. mutans; settings: mean±SD n=3
Experimental: as §1
(§3) NADM, N-acetyl-D-glucosamine (“NADG”) and D-(+)-mannose are selected to determine their effects on multi-species biofilm composition. Repeated rinsing of the biofilms with the substrates at a concentration of 1M results in a significant decrease in absolute numbers in at least four of the pathogenic bacterial species tested in the assay, compared to the control, the results of which are described in Table 1 below. Absolute abundances of bacterial species are shown as mean±SD (n=3) logarithmic values of the genome equivalents per millilitre (log(Geq/mL)).

A. naeslundii = assay: Multi-species biofilm composition: absolute abundance of A. naeslundii; settings: mean±SD n=3
Experimental: as §1, §3

A. viscosus = assay: Multi-species biofilm composition: absolute abundance of A. viscosus; settings: mean±SD n=3
Experimental: as §1, §2

multi-species biofilm = assay: Relative multi-species biofilm composition (groups of bacterial species); settings: for Relative abundance Beneficials/Commensals / Relative abundance Cariogenic Pathogens / Relative abundance Periodontal Pathogens / Relative abundance Beneficial or commensals: mean±SD n=3
Experimental: as §1, §2
Relative abundances of the different groups (beneficial/commensals, periodontal pathogens, cariogenic pathogens) of bacterial species are shown as mean±SD (n=3) percentage of the genome equivalents per millilitre (% (Geq/mL)). […] NADM: N-acetyl-D-mannosamine; NADG: N-acetyl-D-glucosamine.

multi-species biofilms = assay: Multi-species biofilm organic acid balances (supernatant); settings: >0 production, <0 consumption, mean±SD n=3
Experimental: as §1
To examine the effect of NADM and the influence of the orientation and absence/presence of the N-acetyl group on organic acid production and consumption, supernatant samples from substrate-treated or untreated multi-species biofilms are analysed. […] When comparing relevant significant differences between substrate conditions, an increase in acetate production is observed for NADM compared to D-(+)-mannose (3084±174 vs. 1934±56 mg/L).

[1] = tested on: A. actinomycetemcomitans virulence genes; assay: Multi-species biofilm virulence gene expression, SYBR RT-qPCR: A. actinomycetemcomitans; settings: for Fold Change in virulence gene expression: aae / Fold Change in virulence gene expression: apaH / Fold Change in virulence gene expression: cdtB / Fold Change in virulence gene expression: emaA / Fold Change in virulence gene expression: flp / Fold Change in virulence gene expression: ltxA / Fold Change in virulence gene expression: omp29 / Fold Change in virulence gene expression: omp100 / Fold Change in virulence gene expression: orf859 / Fold Change in virulence gene expression: pgA / Fold Change in virulence gene expression: vapA / Fold Change in virulence gene expression: vppA: relative to control (=1), 2^-ΔΔCt, geometric mean n=3
Experimental: as §1
The expression of 33 virulence genes from 4 periodontal pathogens is analysed to evaluate the relative virulence of the substrate-treated biofilms. For all three substrates, virulence gene expression is determined relatively to the control, and these values are also compared between substrates when this is relevant (Tables 5a-5d).

[2] = tested on: human oral keratinocytes (HOK-18A); assay: Inflammatory mediator gene expression in keratinocytes exposed to substrate-treated biofilms; settings: for Fold change in inflammatory mediator gene expression: IL-1β / Fold change in inflammatory mediator gene expression: IL-6 / Fold change in inflammatory mediator gene expression: IL-8 / Fold change in inflammatory mediator gene expression: MMP-8 / Fold change in inflammatory mediator gene expression: TNF-α: relative to control (=1), geometric mean (95% C.I.) n=3
Experimental: Cultures of immortalized human oral keratinocytes (HOK-18A) are grown. The relative inflammatory potential of the substrate-treated multi-species biofilms is evaluated by analyzing the expression of five inflammatory mediator genes in human oral keratinocytes (HOKs) exposed to the substrate-treated biofilms. […] The IL-8 levels in the cellular supernatant are determined as well. RNA is converted to cDNA and relative expression of inflammatory mediator genes is determined as described above with respect to the cellular housekeeping gene (3-actin.
In HOKs exposed to substrate-treated (substrate concentrations of 1 M) multi-species biofilms, mostly decreases in inflammatory mediator gene expression are observed and measured via SYBR RT-qPCR, the results of which are detailed in Table 6.
All substrates are dissolved in PBS at a concentration of 1 M (upper part) or 1% (w/v) (lower part). Values between 0 and 1 represent relative downregulation, values >1 represent relative upregulation. […] For such values, statistically significant differences between two experimental conditions are marked with ‘#1’ (vs. NADM), ‘#2’ (vs. NADG), ‘#3’ (vs. D-(+)-mannose) (P<0.05).

[3] = substrate 1%(w/v) in PBS, listed as D-(+)-mannose
[4] = substrate 1 M in PBS, listed as D-(+)-mannose
[5] = substrate 1 M, listed as D-(+)-mannose
[6] = biofilm rinsed with substrate 1%
[7] = biofilm rinsed with substrate 1M

Question: Which results are given for `O=C[C@@H](O)[C@@H](O)[C@H](O)[C@H](O)CO` [D-mannose, D-(+)-mannose]?
Answer: Absolute abundance Aa (A. actinomycetemcomitans) (A. actinomycetemcomitans; substrate 1%(w/v) in PBS): 9.02 ± 0.11 log(Geq/mL); Absolute abundance Aa (A. actinomycetemcomitans) (A. actinomycetemcomitans; substrate 1 M in PBS): 6.07 ± 0.47 log(Geq/mL); Absolute abundance S. mutans (S. mutans; substrate 1%(w/v) in PBS): 7.34 ± 0.12 log(Geq/mL); Absolute abundance S. mutans (S. mutans; substrate 1 M in PBS): 8.60 ± 0.09 log(Geq/mL); Absolute abundance An (A. naeslundii) (A. naeslundii; substrate 1%(w/v) in PBS): 7.59 ± 0.05 log(Geq/mL); Absolute abundance An (A. naeslundii) (A. naeslundii; substrate 1 M in PBS): 5.54 ± 0.24 log(Geq/mL); Absolute abundance Av (A. viscosus) (A. viscosus; substrate 1%(w/v) in PBS): 8.00 ± 0.17 log(Geq/mL); Absolute abundance Av (A. viscosus) (A. viscosus; substrate 1 M in PBS): 6.40 ± 0.48 log(Geq/mL); Relative abundance Beneficials/Commensals (multi-species biofilm; substrate 1%(w/v) in PBS): 84.18 ± 2.04 % (Geq/mL); Relative abundance Cariogenic Pathogens (multi-species biofilm; substrate 1%(w/v) in PBS): 0.21 ± 0.04 % (Geq/mL); Relative abundance Periodontal Pathogens (multi-species biofilm; substrate 1%(w/v) in PBS): 15.61 ± 2.00 % (Geq/mL); Relative abundance Beneficials/Commensals (multi-species biofilm; [3]): 84.18±2.04 % (Geq/mL); Relative abundance Periodontal Pathogens (multi-species biofilm; [3]): 15.61±2.00 % (Geq/mL); Relative abundance Beneficial or commensals (multi-species biofilm; substrate 1 M in PBS): 96.83 ± 0.62 % (Geq/mL); Relative abundance Cariogenic Pathogens (multi-species biofilm; substrate 1 M in PBS): 2.40 ± 0.85 % (Geq/mL); Relative abundance Periodontal Pathogens (multi-species biofilm; substrate 1 M in PBS): 0.77 ± 0.82 *^, #1 % (Geq/mL); Relative abundance Beneficial or commensals (multi-species biofilm; [4]): 96.83±0.62 % (Geq/mL); Relative abundance Periodontal Pathogens (multi-species biofilm; [4]): 0.77±0.82 % (Geq/mL); Reduction of A. actinomycetemcomitans, F. nucleatum, P. gingivalis, A. naeslundii and A. viscosus numbers vs control (multi-species biofilm; substrate 1 M, range over the species): −1.2 to −3.7 log(Geq/mL); acetate level in biofilm supernatant (multi-species biofilms; substrate 1%(w/v)): 352 ± 24 mg/L; butyrate level in biofilm supernatant (multi-species biofilms; substrate 1%(w/v)): 1985 ± 37 mg/L; formate level in biofilm supernatant (multi-species biofilms; substrate 1%(w/v)): 3717 ± 114 mg/L; lactate level in biofilm supernatant (multi-species biofilms; substrate 1%(w/v)): 125 ± 0 mg/L; propionate level in biofilm supernatant (multi-species biofilms; substrate 1%(w/v)): 1962 ± 28 mg/L; acetate level in biofilm supernatant (multi-species biofilms; substrate 1 M): 1934 ± 56*^, #1 mg/L; butyrate level in biofilm supernatant (multi-species biofilms; substrate 1 M): 86 ± 15*^, #1, 2 mg/L; formate level in biofilm supernatant (multi-species biofilms; substrate 1 M): 398 ± 12 mg/L; lactate level in biofilm supernatant (multi-species biofilms; substrate 1 M): 125 ± 0 mg/L; propionate level in biofilm supernatant (multi-species biofilms; substrate 1 M): 2821 ± 127 mg/L; acetate level in biofilm supernatant (multi-species biofilms; [5]): 1934 ± 56 mg/L; butyrate level in biofilm supernatant (multi-species biofilms; [5]): 85 ± 15 mg/L; propionate level in biofilm supernatant (multi-species biofilms; [5]): 2821 ± 127 mg/L; Fold Change in virulence gene expression: aae ([1]; substrate 1% (w/v)): 1.06 fold; Fold Change in virulence gene expression: apaH ([1]; substrate 1% (w/v)): 0.72 fold; Fold Change in virulence gene expression: cdtB ([1]; substrate 1% (w/v)): 0.36 fold; Fold Change in virulence gene expression: emaA ([1]; substrate 1% (w/v)): 0.41 fold; Fold Change in virulence gene expression: flp ([1]; substrate 1% (w/v)): 1.26 fold; Fold Change in virulence gene expression: ltxA ([1]; substrate 1% (w/v)): 0.17 fold; Fold Change in virulence gene expression: omp29 ([1]; substrate 1% (w/v)): 0.65 fold; Fold Change in virulence gene expression: omp100 ([1]; substrate 1% (w/v)): 0.34 fold; Fold Change in virulence gene expression: orf859 ([1]; substrate 1% (w/v)): 1.46 fold; Fold Change in virulence gene expression: pgA ([1]; substrate 1% (w/v)): 0.55 fold; Fold Change in virulence gene expression: vapA ([1]; substrate 1% (w/v)): 0.39 fold; Fold Change in virulence gene expression: vppA ([1]; substrate 1% (w/v)): 0.53 fold; A. actinomycetemcomitans gene expression decrease: cdtB, emaA, ltxA, omp100 and vapA ([1]; substrate 1%(w/v)): 2.4- to 5.9 fold; Fold Change in virulence gene expression: aae ([1]; substrate 1M): 0.16 fold; Fold Change in virulence gene expression: apaH ([1]; substrate 1M): 0.12 fold; Fold Change in virulence gene expression: cdtB ([1]; substrate 1M): 0.13 fold; Fold Change in virulence gene expression: emaA ([1]; substrate 1M): 0.12 fold; Fold Change in virulence gene expression: flp ([1]; substrate 1M): 1.57 fold; Fold Change in virulence gene expression: ltxA ([1]; substrate 1M): 0.02 fold; Fold Change in virulence gene expression: omp29 ([1]; substrate 1M): 0.27 fold; Fold Change in virulence gene expression: omp100 ([1]; substrate 1M): 0.26 fold; Fold Change in virulence gene expression: orf859 ([1]; substrate 1M): 0.03 fold; Fold Change in virulence gene expression: pgA ([1]; substrate 1M): 5.70 fold; Fold Change in virulence gene expression: vapA ([1]; substrate 1M): 0.62 fold; Fold Change in virulence gene expression: vppA ([1]; substrate 1M): 0.58 fold; Fold change in inflammatory mediator gene expression: IL-1β [2, 6]: 0.79 (0.43-1.48) fold; Fold change in inflammatory mediator gene expression: IL-6 [2, 6]: 0.79 (0.60-1.06) fold; Fold change in inflammatory mediator gene expression: IL-8 [2, 6]: 1.22 (0.79-1.86) fold; Fold change in inflammatory mediator gene expression: MMP-8 [2, 6]: 0.40 (0.27-0.58)* fold; Fold change in inflammatory mediator gene expression: TNF-α [2, 6]: 0.770.48-1.23) fold; Fold change in inflammatory mediator gene expression: IL-1β [2, 7]: 0.81 (0.59-1.12) fold; Fold change in inflammatory mediator gene expression: IL-6 [2, 7]: 0.63 (0.41-0.97) fold; Fold change in inflammatory mediator gene expression: IL-8 [2, 7]: 0.12 (0.06-0.27)* fold; Fold change in inflammatory mediator gene expression: MMP-8 [2, 7]: 1.25 (1.10-1.42) fold; Fold change in inflammatory mediator gene expression: TNF-α [2, 7]: 0.77 (0.37-1.60) fold; Decreased MMP-8 gene expression ([2]; substrate 1%(w/v)): 2.5 fold
